For assay [1], the system named is premature senescent human fibroblasts induced by doxorubicin (HDF). Nature of the assay: CCK-8 cell survival, doxorubicin-induced premature senescent human fibroblasts. The assay is classed as cell-based. As to conditions: 100 nM, 4 days; compared to DMSO-treated group; p<0.01; FIG. 1C. The method, then: Each cell was treated in a serum-free culture solution containing doxorubicin (0.5 μM) for 4 hours. After washing the cells with a serum-free culture solution, the cells were cultured for 4 days in a culture solution containing 10% FBS, and then cellular aging was confirmed by measuring the level of senescence by staining with senescence-associated beta galactosidase.
After each sample was dissolved in DMSO, young cells, replicative senescent cells and senescent cells in which premature aging was induced by treating with doxorubicin were treated with 100 nM salinomycin, 100 nM rapamycin, 100 nM ABT263. After incubation for 4 days in a 37° C., 5% CO2 incubator, the degree of cell survival was confirmed by CCK-8 analysis, the degree of cellular aging was confirmed by senescence-associated β-galactosidase (SAβG) staining, p53 and p16 protein expression analysis.
Young cells (1×10^3 cells/well) or senescent cells (2×10^3 cells/well) were dispensed into a 96-well plate, and cultured overnight in a 37° C., 5% CO2 incubator. Salinomycin, ABT263 and rapamycin were treated at each concentration, and then incubated for 4 days in a 37° C., 5% CO2 incubator. […] Then, the absorbance was measured at 450 nm using a Microplate reader.
The degree of cell survival was expressed as a relative value for the absorbance of the control group treated with only DMSO as 100%. […]

Assay [2] deals with pulmonary fibrosis induced by bleomycin. The assay is classed as in vivo, C57BL/6J mice. As to conditions: compared to PBS group. Here is the method:
Animal experiments were conducted with the approval of the Animal Experimental Ethics Committee, Yeungnam University College of Medicine (YUMC-AEC2018-025). After anesthetizing by injecting 2.5% avertin (Avertin; 0.025 ml/g) into the abdominal cavity of 10-week-old C57BL/6J male mice, 2 mU/g of bleomycin was instilled into the bronchi and injected into the lungs.
From 5 days after bleomycin administration, 2.5 μl of 10 mM salinomycin was diluted in 100 μl phosphate buffer solution at intervals of 3 days and injected intraperitoneally 6 times (Sal group).
Three mice were used for each group, and lungs were excised by sacrifice 22 days after bleomycin injection and fixed in 10% formalin solution or stored frozen in liquid nitrogen.
The tissue fixed in 10% formalin solution was embedded with paraffin and cut into 4 μm to prepare a tissue sample. After removing paraffin from the tissue sample, hematoxylin-eosin staining, trichrome staining, and PAS staining were performed.
The degree of fibrosis was measured by analyzing the degree of collagen staining using the i-Solution™ software program (IMT Inc., Canada) after trichrome staining and the degree of cell senescence in tissue samples was investigated by staining lipofuscin with Sudan black B (Viegas M S, et al., European journal of histochemistry: EJH. 2007). The degree of peritoneal fibrosis was confirmed by measuring the submesothelial thickness of the peritoneal mesothelial cell layer using the NIH Image J program.
In addition, lung tissue samples were prepared, and hematoxylin-eosin staining and trichrome staining were performed to confirm the degree of damage to the lung tissue and the degree of lung fibrosis.

In the case of `CC[C@@H](C(=O)[C@@H](C)[C@@H](O)[C@H](C)[C@@H]1O[C@@H]([C@@H](CC)C(=O)O)CC[C@@H]1C)[C@H]1O[C@]2(C=C[C@@H](O)[C@]3(CC[C@@](C)([C@H]4CC[C@](O)(CC)[C@H](C)O4)O3)O2)[C@H](C)C[C@@H]1C` [salinomycin], the “cell survival (CCK-8)” value in assay [1] is “decreased significantly”. In addition, in assay [2] (hematoxylin-eosin staining, FIG. 8C, 8D), the “degree of lung tissue damage” value is given as “statistically significantly reduced”. In addition, the body weight result in assay [2] (i.p. 6 times at 3-day intervals, FIG. 8B) is recorded as “further increased”. Moreover, the “degree of lung fibrosis” value in assay [2] (trichrome staining, FIG. 8C, 8D) is given as “statistically significantly reduced”.
